Laboratory results published in ChEMBL document CHEMBL5126669, “Discovery of 5,7-Dihydro-6H-pyrrolo[2,3-d]pyrimidin-6-ones as Highly Selective CDK2 Inhibitors” (ACS Med Chem Lett, 2022).

Key:
[1] = AUC in Cynomolgus monkey at 2 mg/kg, po measured upto 24 hrs by LC-MS/MS analysis; assay type: ADME, organism-based, Macaca fascicularis; set-up: dose 2 mg/kg, time < 24 hrs, route po; details: in vivo
Homo sapiens [2] = species: Homo sapiens; experiment: Selectivity ratio of IC50 for inhibition of CDK9 (unknown origin) to IC50 for inhibition recombinant human N-terminal GST-tagged full-length CDK2/Flag-tagged cyclinE1 expressed in baculovirus expression system
[3] = Hepatic blood flow in Cynomolgus monkey at 0.3 mg/kg, iv measured upto 24 hrs by LC-MS/MS analysis; assay type: ADME, organism-based, Macaca fascicularis; details: in vivo
[4] = Oral bioavailability in Sprague-Dawley rat at 3 mg/kg measured upto 24 hrs by LC-MS/MS analysis; assay type: ADME, organism-based; details: in vivo
Homo sapiens [5] = species: Homo sapiens; experiment: Selectivity ratio of IC50 for inhibition of CDK4 (unknown origin) to IC50 for inhibition recombinant human N-terminal GST-tagged full-length CDK2/Flag-tagged cyclinE1 expressed in baculovirus expression system
Homo sapiens [6] = species: Homo sapiens; experiment: Selectivity ratio of IC50 for inhibition of CDK6 (unknown origin) to IC50 for inhibition recombinant human N-terminal GST-tagged full-length CDK2/Flag-tagged cyclinE1 expressed in baculovirus expression system
Homo sapiens [7] = species: Homo sapiens; experiment: Selectivity ratio of IC50 for inhibition of CDK6/cyclin D1 (unknown origin) to IC50 for inhibition recombinant human N-terminal GST-tagged full-length CDK2/Flag-tagged cyclinE1 expressed in baculovirus expression system
[8] = target: Cyclin-dependent kinase 2/cyclin E1 (Homo sapiens, UniProt P24941); experiment: Inhibition of recombinant human N-terminal GST-tagged full-length CDK2/Flag-tagged cyclinE1 expressed in baculovirus expression system using eIF4E-binding protein-1 peptide as substrate incubated for 1 hr in presence of ATP by HTRF assay
[9] = Oral bioavailability in Cynomolgus monkey at 2 mg/kg measured upto 24 hrs by LC-MS/MS analysis; assay type: ADME, organism-based, Macaca fascicularis; details: in vivo
[10] = Solubility of compound; assay type: physicochemical
[11] = Cmax in Cynomolgus monkey at 2 mg/kg, po measured upto 24 hrs by LC-MS/MS analysis; assay type: ADME, organism-based, Macaca fascicularis; set-up: dose 2 mg/kg, time < 24 hrs, route po; details: in vivo
Cytochrome P450 2C8 = target: T1, Cytochrome P450 2C8 (Homo sapiens, UniProt P10632); experiment: Inhibition of CYP2C8 (unknown origin) at >25 uM; assay type: ADME
T1 sequence (P10632 whole entry): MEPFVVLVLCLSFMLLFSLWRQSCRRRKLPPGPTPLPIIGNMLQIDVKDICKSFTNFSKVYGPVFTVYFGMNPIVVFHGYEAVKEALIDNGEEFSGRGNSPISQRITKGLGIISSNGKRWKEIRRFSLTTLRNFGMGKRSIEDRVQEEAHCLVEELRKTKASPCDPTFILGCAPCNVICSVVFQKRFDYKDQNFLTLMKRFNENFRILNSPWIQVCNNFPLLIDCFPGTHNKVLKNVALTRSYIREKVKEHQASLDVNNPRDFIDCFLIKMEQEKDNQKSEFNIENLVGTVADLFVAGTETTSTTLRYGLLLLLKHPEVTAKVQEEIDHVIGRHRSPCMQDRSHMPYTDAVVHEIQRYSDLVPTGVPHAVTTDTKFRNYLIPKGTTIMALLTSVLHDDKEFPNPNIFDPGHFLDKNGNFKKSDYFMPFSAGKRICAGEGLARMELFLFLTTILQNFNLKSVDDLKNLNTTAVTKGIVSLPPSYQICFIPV

Homo sapiens [12] = species: Homo sapiens; experiment: Selectivity ratio of IC50 for inhibition of CDK1 (unknown origin) to IC50 for inhibition recombinant human N-terminal GST-tagged full-length CDK2/Flag-tagged cyclinE1 expressed in baculovirus expression system
Homo sapiens [13] = species: Homo sapiens; experiment: Selectivity ratio of IC50 for inhibition of CDK7 (unknown origin) to IC50 for inhibition recombinant human N-terminal GST-tagged full-length CDK2/Flag-tagged cyclinE1 expressed in baculovirus expression system
[14] = Cmax in Sprague-Dawley rat at 3 mg/kg, po measured upto 24 hrs by LC-MS/MS analysis; assay type: ADME, organism-based; set-up: dose 3 mg/kg, time < 24 hrs, route po; details: in vivo
Cytochrome P450 2C9 = Cytochrome P450 2C9 (Homo sapiens, UniProt P11712); experiment: Inhibition of CYP2C9 (unknown origin) at >25 uM; assay type: ADME
Cytochrome P450 2C9, sequence (P11712 whole entry): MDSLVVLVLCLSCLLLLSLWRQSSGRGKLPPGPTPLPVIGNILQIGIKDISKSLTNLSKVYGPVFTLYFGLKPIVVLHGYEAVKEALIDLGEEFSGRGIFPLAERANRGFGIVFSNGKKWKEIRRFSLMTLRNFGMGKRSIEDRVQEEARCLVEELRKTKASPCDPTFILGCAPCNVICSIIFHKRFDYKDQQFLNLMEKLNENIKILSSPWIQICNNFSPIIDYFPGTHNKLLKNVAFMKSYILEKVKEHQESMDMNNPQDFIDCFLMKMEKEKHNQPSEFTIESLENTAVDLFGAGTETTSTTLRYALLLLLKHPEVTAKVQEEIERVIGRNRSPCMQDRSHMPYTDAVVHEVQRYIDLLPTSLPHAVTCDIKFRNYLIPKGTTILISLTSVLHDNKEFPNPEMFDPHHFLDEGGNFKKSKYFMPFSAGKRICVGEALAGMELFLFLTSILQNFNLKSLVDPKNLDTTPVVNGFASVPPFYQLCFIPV

[15] = Volume of distribution at steady state in Sprague-Dawley rat at 0.5 mg/kg, iv measured upto 24 hrs by LC-MS/MS analysis; assay type: ADME, organism-based; details: Sprague-Dawley, in vivo, read-out: Vdss
[16] = AUC in Sprague-Dawley rat at 3 mg/kg, po measured upto 24 hrs by LC-MS/MS analysis; assay type: ADME, organism-based; set-up: dose 3 mg/kg, time < 24 hrs, route po; details: in vivo
Homo sapiens [17] = species: Homo sapiens; experiment: Selectivity ratio of IC50 for inhibition of CDK4/cyclin D1 (unknown origin) to IC50 for inhibition recombinant human N-terminal GST-tagged full-length CDK2/Flag-tagged cyclinE1 expressed in baculovirus expression system
Cytochrome P450 3A4 = Cytochrome P450 3A4 (Homo sapiens, UniProt P08684); experiment: Inhibition of CYP3A4 (unknown origin) at >25 uM; assay type: ADME
Cytochrome P450 3A4, sequence (P08684 whole entry): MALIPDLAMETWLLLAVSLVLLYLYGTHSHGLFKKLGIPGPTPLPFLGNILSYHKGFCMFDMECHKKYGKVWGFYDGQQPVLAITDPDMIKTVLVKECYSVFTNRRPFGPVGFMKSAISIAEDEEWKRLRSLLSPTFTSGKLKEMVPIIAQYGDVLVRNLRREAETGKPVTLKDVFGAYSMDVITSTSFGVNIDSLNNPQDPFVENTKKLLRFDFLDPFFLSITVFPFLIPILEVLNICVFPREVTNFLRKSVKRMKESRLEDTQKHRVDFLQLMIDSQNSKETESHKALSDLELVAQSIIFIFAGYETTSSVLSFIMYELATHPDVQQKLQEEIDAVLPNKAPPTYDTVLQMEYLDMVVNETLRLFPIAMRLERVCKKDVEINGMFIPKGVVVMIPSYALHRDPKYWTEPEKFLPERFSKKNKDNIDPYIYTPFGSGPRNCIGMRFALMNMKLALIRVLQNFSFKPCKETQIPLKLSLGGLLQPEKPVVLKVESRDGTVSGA

Cytochrome P450 2C19 = Cytochrome P450 2C19 (Homo sapiens, UniProt P33261); experiment: Inhibition of CYP2C19 (unknown origin) at >25 uM; assay type: ADME
Cytochrome P450 2C19, sequence (P33261 whole entry): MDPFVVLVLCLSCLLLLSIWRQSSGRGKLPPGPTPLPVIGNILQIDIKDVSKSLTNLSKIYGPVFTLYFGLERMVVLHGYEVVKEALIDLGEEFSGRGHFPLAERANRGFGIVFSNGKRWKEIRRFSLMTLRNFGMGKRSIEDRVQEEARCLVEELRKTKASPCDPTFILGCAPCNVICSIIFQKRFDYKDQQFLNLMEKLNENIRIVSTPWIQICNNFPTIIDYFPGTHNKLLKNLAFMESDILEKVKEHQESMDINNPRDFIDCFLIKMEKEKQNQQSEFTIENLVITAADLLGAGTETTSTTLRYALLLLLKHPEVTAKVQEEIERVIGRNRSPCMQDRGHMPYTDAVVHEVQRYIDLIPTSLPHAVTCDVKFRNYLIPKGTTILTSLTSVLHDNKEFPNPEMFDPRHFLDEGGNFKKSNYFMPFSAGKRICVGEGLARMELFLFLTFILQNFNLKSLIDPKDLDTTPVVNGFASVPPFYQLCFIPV

[18] = Intrinsic clearance in human liver microsomes at 1 uM measured upto 30 mins by LC/MS analysis; assay type: ADME, Microsome; details: read-out: CLH (converted)
[19] = target: Cyclin-dependent kinase 2 (Homo sapiens, UniProt P24941); experiment: Inhibition of CDK2 in human COV318 cells incubated for overnight in presence of human whole blood by HTRF assay; assay type: cell-based
[20] = Hepatic blood flow in Sprague-Dawley rat at 0.5 mg/kg, iv measured upto 24 hrs by LC-MS/MS analysis; assay type: ADME, organism-based; details: in vivo
[21] = Volume of distribution at steady state in Cynomolgus monkey at 0.3 mg/kg, iv measured upto 24 hrs by LC-MS/MS analysis; assay type: ADME, organism-based, Macaca fascicularis; details: in vivo, read-out: Vdss
Cytochrome P450 2B6 = target: T2, Cytochrome P450 2B6 (Homo sapiens, UniProt P20813); experiment: Inhibition of CYP2B6 (unknown origin) at >25 uM; assay type: ADME
T2 sequence (P20813 whole entry): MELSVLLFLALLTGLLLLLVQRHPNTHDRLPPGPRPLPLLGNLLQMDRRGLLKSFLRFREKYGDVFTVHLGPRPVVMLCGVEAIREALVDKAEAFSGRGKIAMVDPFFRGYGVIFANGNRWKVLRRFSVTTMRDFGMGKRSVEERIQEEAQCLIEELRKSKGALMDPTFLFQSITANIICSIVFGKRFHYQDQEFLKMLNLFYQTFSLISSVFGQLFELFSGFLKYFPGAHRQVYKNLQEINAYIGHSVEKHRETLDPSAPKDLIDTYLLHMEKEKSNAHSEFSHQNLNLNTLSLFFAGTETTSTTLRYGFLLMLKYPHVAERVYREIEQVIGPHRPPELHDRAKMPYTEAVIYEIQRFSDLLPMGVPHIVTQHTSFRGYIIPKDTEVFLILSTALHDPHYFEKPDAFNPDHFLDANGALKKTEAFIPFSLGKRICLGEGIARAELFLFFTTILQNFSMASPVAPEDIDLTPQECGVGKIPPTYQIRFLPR

hERG (KCNH2) = hERG (KCNH2) (Homo sapiens, UniProt Q12809); experiment: Displacement of [3H]Dofetilide from human ERG at 10 uM incubated for 24 hrs by filter binding assay relative to control; assay type: toxicity; details: probe [3H]dofetilide
hERG (KCNH2), sequence (Q12809 whole entry): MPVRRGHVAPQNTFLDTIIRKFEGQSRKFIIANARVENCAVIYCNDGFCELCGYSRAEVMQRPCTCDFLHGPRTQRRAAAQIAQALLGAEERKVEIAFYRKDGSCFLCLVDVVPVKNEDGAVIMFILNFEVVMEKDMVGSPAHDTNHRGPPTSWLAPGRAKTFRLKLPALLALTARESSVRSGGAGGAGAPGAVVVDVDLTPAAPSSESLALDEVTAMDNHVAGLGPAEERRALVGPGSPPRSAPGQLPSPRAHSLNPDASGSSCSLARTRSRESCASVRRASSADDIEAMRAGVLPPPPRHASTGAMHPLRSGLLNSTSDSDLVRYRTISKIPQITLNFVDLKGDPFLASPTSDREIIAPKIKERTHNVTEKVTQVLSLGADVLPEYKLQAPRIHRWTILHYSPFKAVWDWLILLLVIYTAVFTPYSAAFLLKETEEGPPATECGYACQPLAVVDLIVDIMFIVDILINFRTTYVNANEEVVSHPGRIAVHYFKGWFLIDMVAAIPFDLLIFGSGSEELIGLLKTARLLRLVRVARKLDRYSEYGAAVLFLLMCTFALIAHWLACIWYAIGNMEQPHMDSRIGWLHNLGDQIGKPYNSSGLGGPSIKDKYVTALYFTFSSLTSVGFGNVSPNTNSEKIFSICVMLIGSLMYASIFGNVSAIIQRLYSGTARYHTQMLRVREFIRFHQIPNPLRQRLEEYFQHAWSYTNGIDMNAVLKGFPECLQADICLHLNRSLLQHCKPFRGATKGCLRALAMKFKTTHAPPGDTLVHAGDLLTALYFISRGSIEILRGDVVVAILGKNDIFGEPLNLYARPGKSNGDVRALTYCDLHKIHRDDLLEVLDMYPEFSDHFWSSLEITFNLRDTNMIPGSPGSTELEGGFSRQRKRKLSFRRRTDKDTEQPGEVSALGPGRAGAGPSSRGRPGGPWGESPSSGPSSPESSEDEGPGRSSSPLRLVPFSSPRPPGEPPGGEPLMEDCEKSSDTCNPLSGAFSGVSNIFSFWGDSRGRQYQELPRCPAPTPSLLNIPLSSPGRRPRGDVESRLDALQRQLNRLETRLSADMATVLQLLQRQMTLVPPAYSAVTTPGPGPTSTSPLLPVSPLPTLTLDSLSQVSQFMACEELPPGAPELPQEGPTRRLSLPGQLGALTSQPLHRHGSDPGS

Cytochrome P450 2D6 = Cytochrome P450 2D6 (Homo sapiens, UniProt P10635); experiment: Inhibition of CYP2D6 (unknown origin) at >25 uM; assay type: ADME
Cytochrome P450 2D6, sequence (P10635 whole entry): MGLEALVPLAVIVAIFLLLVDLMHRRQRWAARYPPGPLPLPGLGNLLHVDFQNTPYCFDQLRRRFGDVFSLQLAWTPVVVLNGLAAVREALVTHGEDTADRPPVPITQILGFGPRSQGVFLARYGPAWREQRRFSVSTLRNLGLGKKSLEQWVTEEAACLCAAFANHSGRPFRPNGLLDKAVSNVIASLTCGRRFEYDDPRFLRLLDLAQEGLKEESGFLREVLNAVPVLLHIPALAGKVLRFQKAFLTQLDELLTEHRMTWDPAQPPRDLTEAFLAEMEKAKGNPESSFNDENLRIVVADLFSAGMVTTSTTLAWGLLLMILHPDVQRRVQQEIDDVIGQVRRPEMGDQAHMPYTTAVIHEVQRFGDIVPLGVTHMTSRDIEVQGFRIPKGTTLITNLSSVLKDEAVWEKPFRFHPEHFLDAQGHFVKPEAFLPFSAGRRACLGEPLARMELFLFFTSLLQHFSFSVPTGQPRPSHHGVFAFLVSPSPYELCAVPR

Cytochrome P450 1A2 = target: T3, Cytochrome P450 1A2 (Homo sapiens, UniProt P05177); experiment: Inhibition of CYP1A2 (unknown origin) at >25 uM; assay type: ADME
T3 sequence (P05177 whole entry): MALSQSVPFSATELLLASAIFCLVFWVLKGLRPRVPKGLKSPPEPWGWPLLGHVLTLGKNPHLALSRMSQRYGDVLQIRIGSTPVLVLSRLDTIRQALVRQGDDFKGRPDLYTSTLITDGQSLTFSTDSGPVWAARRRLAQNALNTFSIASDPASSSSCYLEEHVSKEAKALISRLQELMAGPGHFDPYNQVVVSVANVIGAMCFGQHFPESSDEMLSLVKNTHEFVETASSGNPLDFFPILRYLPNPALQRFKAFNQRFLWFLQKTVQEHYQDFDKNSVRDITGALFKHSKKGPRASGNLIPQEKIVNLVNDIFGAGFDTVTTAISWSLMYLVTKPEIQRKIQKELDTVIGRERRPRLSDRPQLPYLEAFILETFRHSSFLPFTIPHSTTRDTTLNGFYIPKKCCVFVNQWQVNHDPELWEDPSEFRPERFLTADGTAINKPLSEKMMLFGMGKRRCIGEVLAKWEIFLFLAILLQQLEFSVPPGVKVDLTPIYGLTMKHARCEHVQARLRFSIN

AUC at 24 h [1]: 0.388 µM·h | Ratio IC50 (Homo sapiens [2]): 2500 | QH [3]: 48% | bioavailability [4]: 59% | Ratio IC50 (Homo sapiens [5]): 110 | Ratio IC50 (Homo sapiens [6]): 35 | Ratio IC50 (Homo sapiens [7]): 35 | IC50 [8]: 2 nM | bioavailability [9]: 12% | solubility [10]: > 400 µg/mL | Cmax [11]: 56 nM | inhibition (INH) (Cytochrome P450 2C8): Active | Ratio IC50 (Homo sapiens [12]): 660 | Ratio IC50 (Homo sapiens [13]): 1100 | Cmax [14]: 562 nM | inhibition (INH) (Cytochrome P450 2C9): Active | Vd [15]: 2 L/kg | AUC at 24 h [16]: 1.13 µM·h | Ratio IC50 (Homo sapiens [17]): 110 | inhibition (INH) (Cytochrome P450 3A4): Active | inhibition (INH) (Cytochrome P450 2C19): Active | predicted hepatic clearance at 1 µM [18]: 16.7 mL/min/kg | IC50 [19]: 316 nM | QH [20]: 96% | Vd [21]: 1.2 L/kg | inhibition (INH) (Cytochrome P450 2B6): Active | inhibition (INH) (Cytochrome P450 2D6): Active | inhibition (INH) (Cytochrome P450 1A2): Active
SMILES: Cn1cc(S(=O)(=O)N2CCC(Nc3ncc4c(n3)N([C@@H]3CCC[C@@H](O)C3)C(=O)C43CC3)CC2)cn1
inhibition at 24 h, 10 µM (hERG (KCNH2)): 7.2%
